Laboratory results: patent US20120101132A1, “New Substituted Oxindole Derivative” (priority 2008, published 2012)

Molecular target: T1, recombinant human GSK3β (Homo sapiens, UniProt P49841)
T1 construct: purchased Dundee University, UK
Assay: GSK3β Scintillation Proximity Assay (ATP competition)
Type: biochemical
Conditions: ATP 1 μM; Km of ATP for GSK3β 20 μM; peptide substrate 1 μM
Description: Determination of ATP Competition in Scintillation Proximity GSK3β Assay.
GSK3β Scintillation Proximity Assay.
The competition experiments were carried out in duplicate with 10 different concentrations of the inhibitors in clear-bottom microtiter plates (Wallac, Finland). A biotinylated peptide substrate, Biotin-Ala-Ala-Glu-Glu-Leu-Asp-Ser-Arg-Ala-Gly-Ser(PO3H2)-Pro-Gln-Leu (AstraZeneca, Lund), was added at a final concentration of 1 μM in an assay buffer containing 1 mU recombinant human GSK3β (Dundee University, UK), 12 mM morpholinepropanesulfonic acid (MOPS), pH 7.0, 0.3 mM EDTA, 0.01% β-mercaptorethanol, 0.004% Brij 35 (a […] detergent), 0.5% glycerol and 0.5 μg BSA/25 μl. The reaction was initiated by the addition of 0.04 μCi [γ-^33P]ATP (Amersham, UK) and unlabelled ATP at a final concentration of 1 μM and assay volume of 25 μl. After incubation for 20 minutes at room temperature, each reaction was terminated by the addition of 25 μl stop solution containing 5 mM EDTA, 50 μM ATP, 0.1% Triton X-100 and 0.25 mg streptavidin coated Scintillation Proximity Assay (SPA) beads (Amersham, UK). After 6 hours the radioactivity was determined in a liquid scintillation counter (1450 MicroBeta Trilux, Wallac). The inhibition curves were analysed by non-linear regression using GraphPad Prism, USA. […]

T1 sequence (P49841 whole entry): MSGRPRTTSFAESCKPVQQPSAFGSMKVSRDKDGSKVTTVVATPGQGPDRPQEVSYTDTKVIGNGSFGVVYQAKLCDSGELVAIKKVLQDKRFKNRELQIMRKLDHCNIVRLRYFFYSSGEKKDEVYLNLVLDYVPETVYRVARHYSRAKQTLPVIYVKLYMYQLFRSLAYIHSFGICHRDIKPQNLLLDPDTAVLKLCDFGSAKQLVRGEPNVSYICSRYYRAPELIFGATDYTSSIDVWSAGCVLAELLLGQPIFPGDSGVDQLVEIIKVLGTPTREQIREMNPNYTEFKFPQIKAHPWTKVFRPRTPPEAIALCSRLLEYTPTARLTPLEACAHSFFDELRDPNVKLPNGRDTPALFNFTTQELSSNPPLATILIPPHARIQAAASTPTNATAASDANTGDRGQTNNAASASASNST

Ki: 32 nM
SMILES: N#Cc1ccc2[nH]c(O)c(-c3ccc(C(=O)O)cn3)c2c1 [compound of formula (I), 6-(5-cyano-2-hydroxy-1H-indol-3-yl)pyridine-3-carboxylic acid]
